# From patent US20260021092A1, “STRUCTURE-BASED DESIGN OF A NOVEL CLASS OF DRUGS FOR NEURODEGENERATIVE DISEASE” (The Regents of the University of California, priority 2022, published 2026)
# Columns and labels:
# [1] = target: T1, recombinant alpha-synuclein fibrils (Homo sapiens, UniProt P37840); assay: Western blot of alpha-synuclein fibrils treated with compound; type: biochemical; conditions: 48 hours with compound
# T1 construct: made in house; host or cells: E. coli BL21(DE3) Gold
# Procedure: Both compounds were incubated with equimolar ratios of recombinant alpha-synuclein fibrils (100 μM:100 μM) for 48 hours at 37° C. in 1×PBS. After incubation, Thioflavin T (ThT), a fluorescent marker of amyloid fibrils, was added to the samples and ThT fluorescence was measured. EGCG was used as a positive control for comparison. […] Next, transmission electron microscopy (EM) was performed for each sample. […] To obtain a quantitative evaluation of fibril reduction, fibrils were first incubated for 72 hours with compound, then 10 micrographs from random grid points were taken for each sample, and the numbers of fibrils per image were counted (FIG. 5c). […] Western blot analysis, staining for alpha-synuclein, was performed for fibril samples incubated with compounds for 48 hours (FIG. 5d). For untreated alpha-synuclein fibrils, we see a prominent band at 14 kDa corresponding with protein monomer. […]
# Samples were loaded onto a NuPAGE 12% Bis-Tris pre-cast protein gel and ran for 35 minutes at 200 V. To transfer protein from the gel to a nitrocellulose membrane an iBLOT2 dry blotting system was used. […] Signal was detected with Pierce ECL Plus Western Blotting Substrate (Cat #32132), and blot was imaged with a Pharos FX Plus Molecular Imager.
# [2] = target: T2, alpha-synuclein aggregates (Homo sapiens, UniProt P37840); assay: Alpha-synuclein aggregation in DDP1 C. elegans; type: in vivo; conditions: for soluble versus insoluble alpha-synuclein in worm homogenate by Western blot: 100 μM on plates; for number of alpha-synuclein aggregates in the head region: 100 μM on plates from L1, day 6 of adulthood
# T2 construct: host or cells: transgenic C. elegans strain DDP1 (unc-54 promoter)
# From the text: The DDP1 C. elegans strain overexpresses alpha-synuclein fused with yellow fluorescent protein (YFP) and cyan fluorescent protein (CFP)^22,23. FRET-positive fluorescent alpha-synuclein aggregates can then be visualized and quantified in the adult worms. […] PBS was used as a vehicle control. At day 6 of adulthood, the worms were visualized, and the number of aggregates were quantified by fluorescent microscopy. […] Treated worms were also homogenized for protein analysis by Western blot. Homogenate for each experimental condition was separated into insoluble pellet fractions (P) and soluble supernatant (S) fractions. For untreated worm homogenate, the majority of alpha-synuclein is found in the insoluble pellet.
# For C. elegans experiments, the same protocol was used, except following the treatment period worms were harvested, flash frozen, then homogenized for protein extraction. The membrane was washed with TBST overnight before repeating the Western blot analysis for beta-actin (primary antibody anti-beta-actin (C4) (Santa Cruz Biotechnology, cat #sc-47778, lot #J1119; 1:500 dilution in 5% milk/TBST); horseradish peroxidase-conjugated secondary antibody (goat polyclonal anti-mouse IgG (Abcam; cat #ab205719, lot #GR3271082-2); 1:5000 dilution in 5% milk/TBST).
# The DDP1 (uonExl [unc-54::αSyn::CFP+unc-54::αSyn::YFP(Venus)]) strain was acquired from the Caenorhabditis Genetics Center (CGC) and used for experiments. C. elegans were grown and maintained using standard conditions. Worms were synchronized using hypochlorite bleaching, hatched ovemight in M9 media (5 g/l NaCl, 6 g/l Na2HPO4, 3 g/l KH2PO4, […]) at 17° C., then cultured on plates with nematode growth medium (NGI; 17 g/l agar, 2.5 g/l peptone, 3 g/l NaCl 1 mM CaCl2, 1 mM MgSO4, 25 mM KH2PO4 pH 6, 5 μg/ml cholesterol) seeded with OP50 E. coli. Strains were maintained at 17° C. […] Treatment plates were then seeded with heat treated OP50 (30 min at 65° C.), according to the “NGM dead” method as previously published^36. Synchronized L1 worms were then added to the treatment plates and grown for 7 days. PBS was used as a control condition. 75 μM FUDR was added on the third day of growth. For imaging, worms were mounted onto 5% agar pads on glass slides, immobilized with 1% NaN3 solution, and imaged by fluorescent microscopy (GFP channel) using a ZEISS Axio Observer D1 fluorescence microscope. Alpha-synuclein aggregates in the head region were quantified.
# Neuro2a cells = assay: MTT cytotoxicity assay in Neuro2a cells; type: cell-based; conditions: final small molecule concentration of 10 μM
# Procedure: 90 μL of Neuro2a cells were plated on clear 96 well plates (Falcon 353072) at 6000 cells per well and given 24 hours to adhere to the plate. Subsequent treatment consisted of PHF samples that were coincubated with or without 100 μM of small molecules for 48 hours at 37° C., with 10 μL applied per well for a final small molecule concentration of 10 μM. After another 24-hour incubation at 37° C., 20 μL of Thiazolyl Blue Tetrazolium Bromide MTT dye (Sigma; 5 mg/mL stock in DPBS) was added to each well and further incubated for 3.5 hours at 37° C. Assay was arrested by replacement of all media with 100% DMSO and transfer to a SpectraMax MF reader. Background 700 nm readings were subtracted from the absorbance readings at 570 nm. Cells treated with 100% DMSO were designated as 0% viable and those treated only with vehicle were designated as 100% viable. Other well readings were normalized to these values.
Compound,higher molecular weight alpha-synuclein species by Western blot [1],soluble versus insoluble alpha-synuclein in worm homogenate by Western blot [2],number of alpha-synuclein aggregates in the head region [2],neuronal cytotoxicity of compound alone (Neuro2a cells)
"Cc1cccc(C)c1NC(=O)Cn1nc(Cc2ccccc2)c2ccccc2c1=O [CNS-11g, 2-(4-benzyl-1-oxophthalazin-2-yl)-N-(2,6-dimethylphenyl)acetamide]",reduction in the higher molecular weight species,solubilization of the alpha-synuclein,reduction of total aggregates,
"Cc1cc(C)c(NC(=O)Cn2nc3c4c(cccc4c2=O)-c2ccccc2-3)c(C)c1 [CNS-11, N-mesityl-2-(3-oxoindeno[1,2,3-de]phthalazin-2(3H)-yl)acetamide]",reduction in the higher molecular weight species,solubilization of the alpha-synuclein,reduction of total aggregates,Apart from CNS-11
"O=C(O[C@@H]1Cc2c(O)cc(O)cc2O[C@@H]1c1cc(O)c(O)c(O)c1)c1cc(O)c(O)c(O)c1 [EGCG, epigallocatechin gallate]",,,,no significant cytotoxicity
